{
  "source": "paper PMC4008261",
  "about": "“Rewiring of regenerated axons by combining treadmill training with semaphorin3A inhibition” (Molecular Brain, 2014)",
  "key": {"Chemokine CCR5": {"molecular_target": "Chemokine CCR5 (Homo sapiens, UniProt P51681)", "assay": "Pharmacological profile: receptor binding assay", "source_text": "(§1) Table 1 Pharmacological profile of SM-345431 (part 1) | column: IC50 (μm)"}, "Chemokine CCR4": {"molecular_target": "Chemokine CCR4 (Homo sapiens, UniProt P51679)", "sequence (P51679 whole entry)": "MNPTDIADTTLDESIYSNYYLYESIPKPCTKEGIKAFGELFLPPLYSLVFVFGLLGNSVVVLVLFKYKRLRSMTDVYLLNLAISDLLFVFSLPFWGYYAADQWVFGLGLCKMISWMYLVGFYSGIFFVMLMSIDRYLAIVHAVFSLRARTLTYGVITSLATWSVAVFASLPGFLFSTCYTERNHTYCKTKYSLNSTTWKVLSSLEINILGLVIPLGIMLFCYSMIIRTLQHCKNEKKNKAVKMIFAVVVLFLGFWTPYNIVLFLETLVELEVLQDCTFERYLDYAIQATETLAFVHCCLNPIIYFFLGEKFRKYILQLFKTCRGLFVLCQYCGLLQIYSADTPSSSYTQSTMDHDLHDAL", "assay": "Pharmacological profile: receptor binding assay", "source_text": "as §1"}, "Chemokine CCR1": {"molecular_target": "Chemokine CCR1 (Homo sapiens, UniProt P32246)", "sequence (P32246 whole entry)": "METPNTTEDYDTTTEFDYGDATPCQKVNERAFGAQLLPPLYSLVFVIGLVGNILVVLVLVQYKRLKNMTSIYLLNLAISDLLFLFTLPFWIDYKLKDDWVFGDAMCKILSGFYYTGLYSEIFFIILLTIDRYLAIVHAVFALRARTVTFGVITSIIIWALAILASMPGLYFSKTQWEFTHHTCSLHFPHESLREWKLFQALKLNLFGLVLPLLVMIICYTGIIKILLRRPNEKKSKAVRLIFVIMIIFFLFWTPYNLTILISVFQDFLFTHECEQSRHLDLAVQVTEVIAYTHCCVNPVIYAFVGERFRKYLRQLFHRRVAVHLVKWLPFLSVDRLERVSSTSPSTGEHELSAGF", "assay": "Pharmacological profile: receptor binding assay", "source_text": "as §1"}, "Glucocorticoid": {"molecular_target": "Glucocorticoid (Homo sapiens, UniProt P04150)", "sequence (P04150 whole entry)": "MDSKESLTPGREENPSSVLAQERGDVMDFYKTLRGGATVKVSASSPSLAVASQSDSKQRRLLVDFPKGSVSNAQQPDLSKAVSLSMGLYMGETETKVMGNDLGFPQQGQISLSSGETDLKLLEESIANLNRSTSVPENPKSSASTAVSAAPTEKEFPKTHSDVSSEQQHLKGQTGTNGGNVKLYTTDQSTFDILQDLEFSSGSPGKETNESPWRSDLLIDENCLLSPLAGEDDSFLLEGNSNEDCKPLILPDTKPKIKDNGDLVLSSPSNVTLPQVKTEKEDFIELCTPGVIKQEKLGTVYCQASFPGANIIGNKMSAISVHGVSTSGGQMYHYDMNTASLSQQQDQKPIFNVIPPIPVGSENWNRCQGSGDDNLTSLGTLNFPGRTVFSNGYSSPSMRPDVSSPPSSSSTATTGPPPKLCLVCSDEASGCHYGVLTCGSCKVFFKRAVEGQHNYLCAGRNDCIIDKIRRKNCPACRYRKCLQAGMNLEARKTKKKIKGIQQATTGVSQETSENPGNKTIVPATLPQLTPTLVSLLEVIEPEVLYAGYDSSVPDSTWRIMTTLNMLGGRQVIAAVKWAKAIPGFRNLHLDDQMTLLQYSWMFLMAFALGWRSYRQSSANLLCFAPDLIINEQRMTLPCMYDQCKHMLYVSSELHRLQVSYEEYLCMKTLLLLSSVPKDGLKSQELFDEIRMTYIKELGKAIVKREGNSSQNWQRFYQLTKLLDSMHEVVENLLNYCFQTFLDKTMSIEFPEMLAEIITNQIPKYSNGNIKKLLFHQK", "assay": "Pharmacological profile: receptor binding assay", "source_text": "as §1"}, "Chemokine CXCR2 (IL-8B)": {"molecular_target": "Chemokine CXCR2 (IL-8B) (Homo sapiens, UniProt P25025)", "sequence (P25025 whole entry)": "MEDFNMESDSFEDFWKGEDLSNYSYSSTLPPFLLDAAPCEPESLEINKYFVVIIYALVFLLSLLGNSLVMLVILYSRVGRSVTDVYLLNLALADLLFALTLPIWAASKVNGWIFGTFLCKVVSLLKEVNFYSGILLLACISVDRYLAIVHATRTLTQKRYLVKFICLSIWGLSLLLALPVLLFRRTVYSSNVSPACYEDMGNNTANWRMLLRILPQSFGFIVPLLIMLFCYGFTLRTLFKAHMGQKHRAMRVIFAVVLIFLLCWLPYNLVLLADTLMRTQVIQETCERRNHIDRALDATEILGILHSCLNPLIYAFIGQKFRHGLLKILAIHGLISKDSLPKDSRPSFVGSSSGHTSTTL", "assay": "Pharmacological profile: receptor binding assay", "source_text": "as §1"}, "Chemokine CCR2B": {"molecular_target": "Chemokine CCR2B (Homo sapiens, UniProt P41597)", "assay": "Pharmacological profile: receptor binding assay", "source_text": "as §1"}, "[1]": {"molecular_target": "Tumor Necrosis Factor (TNF), Non-selective", "assay": "Pharmacological profile: receptor binding assay", "source_text": "as §1"}, "SAPK2a": {"molecular_target": "SAPK2a (Homo sapiens, UniProt Q16539)", "assay": "Kinase inhibition test", "assay_type": "biochemical", "source_text": "(§2) Table 2 Pharmacological profile of SM-345431 (part 2) | column: IC50 (μm)"}, "GSK3β": {"molecular_target": "GSK3β (Homo sapiens, UniProt P49841)", "sequence (P49841 whole entry, species assumed)": "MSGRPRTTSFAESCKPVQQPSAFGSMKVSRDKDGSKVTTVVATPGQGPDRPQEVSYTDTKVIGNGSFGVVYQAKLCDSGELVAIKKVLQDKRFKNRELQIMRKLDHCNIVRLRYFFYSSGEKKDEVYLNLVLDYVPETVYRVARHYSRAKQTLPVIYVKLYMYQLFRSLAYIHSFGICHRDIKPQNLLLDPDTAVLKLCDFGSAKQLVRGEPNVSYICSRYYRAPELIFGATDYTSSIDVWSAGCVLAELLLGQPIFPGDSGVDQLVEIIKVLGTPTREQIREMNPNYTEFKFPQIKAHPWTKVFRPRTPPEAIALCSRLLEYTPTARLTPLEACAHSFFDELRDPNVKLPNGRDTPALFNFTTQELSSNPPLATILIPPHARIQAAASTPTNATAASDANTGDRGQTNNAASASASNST", "assay": "Kinase inhibition test", "assay_type": "biochemical", "source_text": "as §2"}, "MEK4": {"molecular_target": "MEK4 (Homo sapiens, UniProt P45985)", "assay": "Kinase inhibition test", "assay_type": "biochemical", "source_text": "as §2"}, "Flt1": {"molecular_target": "Flt1 (Homo sapiens, UniProt P17948)", "assay": "Kinase inhibition test", "assay_type": "biochemical", "source_text": "as §2"}, "PAK4": {"molecular_target": "PAK4 (Homo sapiens, UniProt O96013)", "assay": "Kinase inhibition test", "assay_type": "biochemical", "source_text": "as §2"}, "EphB2": {"molecular_target": "EphB2 (Homo sapiens, UniProt P29323)", "sequence (P29323 19-1055, species assumed)": "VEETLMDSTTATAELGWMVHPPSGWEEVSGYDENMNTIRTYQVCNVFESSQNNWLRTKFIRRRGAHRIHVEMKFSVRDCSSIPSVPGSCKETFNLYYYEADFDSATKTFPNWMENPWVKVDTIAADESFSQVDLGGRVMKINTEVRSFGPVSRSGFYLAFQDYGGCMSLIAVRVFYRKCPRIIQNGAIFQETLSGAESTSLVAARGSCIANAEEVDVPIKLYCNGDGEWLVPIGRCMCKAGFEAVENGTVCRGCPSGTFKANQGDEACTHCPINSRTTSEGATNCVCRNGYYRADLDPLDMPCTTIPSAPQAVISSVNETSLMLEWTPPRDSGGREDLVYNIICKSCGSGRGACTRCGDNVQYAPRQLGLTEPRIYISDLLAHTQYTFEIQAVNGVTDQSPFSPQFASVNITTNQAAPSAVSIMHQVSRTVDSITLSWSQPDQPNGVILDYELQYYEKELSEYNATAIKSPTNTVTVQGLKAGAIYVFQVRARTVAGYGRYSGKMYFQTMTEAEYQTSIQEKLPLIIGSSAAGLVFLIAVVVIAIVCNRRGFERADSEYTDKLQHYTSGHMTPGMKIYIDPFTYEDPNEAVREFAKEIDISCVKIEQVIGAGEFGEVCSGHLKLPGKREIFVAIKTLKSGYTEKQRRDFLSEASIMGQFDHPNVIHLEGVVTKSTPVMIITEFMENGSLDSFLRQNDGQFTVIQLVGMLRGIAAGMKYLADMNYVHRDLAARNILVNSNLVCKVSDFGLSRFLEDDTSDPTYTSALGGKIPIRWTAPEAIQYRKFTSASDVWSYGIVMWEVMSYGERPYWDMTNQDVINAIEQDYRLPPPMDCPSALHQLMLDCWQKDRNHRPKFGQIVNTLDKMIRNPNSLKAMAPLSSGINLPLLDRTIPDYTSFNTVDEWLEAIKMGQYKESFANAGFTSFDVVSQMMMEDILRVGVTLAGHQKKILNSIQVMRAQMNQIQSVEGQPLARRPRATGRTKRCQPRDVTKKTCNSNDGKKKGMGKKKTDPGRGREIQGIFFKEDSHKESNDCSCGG", "assay": "Kinase inhibition test", "assay_type": "biochemical", "source_text": "as §2"}, "Fyn": {"molecular_target": "Fyn (Homo sapiens, UniProt P06241)", "assay": "Kinase inhibition test", "assay_type": "biochemical", "source_text": "as §2"}, "EGFR": {"molecular_target": "EGFR (Homo sapiens, UniProt P00533)", "assay": "Kinase inhibition test", "assay_type": "biochemical", "source_text": "as §2"}, "FGFR2": {"molecular_target": "FGFR2 (Homo sapiens, UniProt P21802)", "assay": "Kinase inhibition test", "assay_type": "biochemical", "source_text": "as §2"}, "PKBα": {"molecular_target": "PKBα (Homo sapiens, UniProt P31749)", "sequence (P31749 whole entry, species assumed)": "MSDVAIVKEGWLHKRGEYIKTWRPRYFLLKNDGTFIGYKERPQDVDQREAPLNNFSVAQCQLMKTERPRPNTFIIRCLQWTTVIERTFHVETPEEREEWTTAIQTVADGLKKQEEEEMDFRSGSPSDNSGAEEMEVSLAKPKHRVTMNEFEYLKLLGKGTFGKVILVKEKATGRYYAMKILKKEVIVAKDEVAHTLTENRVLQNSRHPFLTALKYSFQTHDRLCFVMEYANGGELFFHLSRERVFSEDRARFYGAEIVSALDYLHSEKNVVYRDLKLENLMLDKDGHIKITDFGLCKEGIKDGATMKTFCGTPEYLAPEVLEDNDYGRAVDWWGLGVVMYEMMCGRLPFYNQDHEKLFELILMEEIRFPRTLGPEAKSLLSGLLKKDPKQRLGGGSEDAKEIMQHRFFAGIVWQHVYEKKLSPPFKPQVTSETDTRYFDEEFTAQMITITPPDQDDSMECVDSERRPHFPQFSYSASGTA", "assay": "Kinase inhibition test", "assay_type": "biochemical", "source_text": "as §2"}, "PKBβ": {"molecular_target": "PKBβ (Homo sapiens, UniProt P31751)", "sequence (P31751 whole entry, species assumed)": "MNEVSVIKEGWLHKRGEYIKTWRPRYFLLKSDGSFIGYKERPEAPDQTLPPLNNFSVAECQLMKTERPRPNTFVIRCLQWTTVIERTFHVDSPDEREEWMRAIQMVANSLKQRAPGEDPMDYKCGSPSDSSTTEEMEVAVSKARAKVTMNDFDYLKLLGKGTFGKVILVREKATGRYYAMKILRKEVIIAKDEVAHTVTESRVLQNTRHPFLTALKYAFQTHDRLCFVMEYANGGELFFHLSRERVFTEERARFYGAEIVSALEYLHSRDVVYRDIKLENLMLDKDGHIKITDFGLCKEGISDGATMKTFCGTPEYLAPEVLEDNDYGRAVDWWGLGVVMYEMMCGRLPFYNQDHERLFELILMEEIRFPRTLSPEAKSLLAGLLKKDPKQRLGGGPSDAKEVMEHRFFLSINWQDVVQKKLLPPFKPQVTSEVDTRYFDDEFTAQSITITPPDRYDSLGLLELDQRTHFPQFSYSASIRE", "assay": "Kinase inhibition test", "assay_type": "biochemical", "source_text": "as §2"}, "PI 3-Kγ": {"molecular_target": "PI 3-Kγ (Homo sapiens, UniProt P48736)", "assay": "Kinase inhibition test", "assay_type": "biochemical", "source_text": "as §2"}, "PAK2": {"molecular_target": "PAK2 (Homo sapiens, UniProt Q13177)", "sequence (Q13177 whole entry, species assumed)": "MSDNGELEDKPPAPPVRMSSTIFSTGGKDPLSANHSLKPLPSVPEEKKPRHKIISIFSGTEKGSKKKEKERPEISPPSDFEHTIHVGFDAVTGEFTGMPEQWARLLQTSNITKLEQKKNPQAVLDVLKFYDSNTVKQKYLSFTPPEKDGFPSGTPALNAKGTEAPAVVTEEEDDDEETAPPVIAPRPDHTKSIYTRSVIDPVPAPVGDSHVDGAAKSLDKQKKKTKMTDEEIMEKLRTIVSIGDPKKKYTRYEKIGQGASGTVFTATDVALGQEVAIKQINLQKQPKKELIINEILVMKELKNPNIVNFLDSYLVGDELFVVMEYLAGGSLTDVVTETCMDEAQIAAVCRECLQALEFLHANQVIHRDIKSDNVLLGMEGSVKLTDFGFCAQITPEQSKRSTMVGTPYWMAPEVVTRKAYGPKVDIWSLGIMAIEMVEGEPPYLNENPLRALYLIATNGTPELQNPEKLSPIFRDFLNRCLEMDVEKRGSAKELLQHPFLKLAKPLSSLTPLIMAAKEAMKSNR", "assay": "Kinase inhibition test", "assay_type": "biochemical", "source_text": "as §2"}, "MAPK2": {"molecular_target": "MAPK2 (Homo sapiens, UniProt P28482)", "assay": "Kinase inhibition test", "assay_type": "biochemical", "source_text": "as §2"}, "SCT adult rats": {"system": "SCT adult rats", "assay": "Angiogenesis after SCT (RECA-1 immunostaining)", "assay_type": "in vivo, rat", "details": "for total immunostained area of vessels with lumen diameters larger than 20 μm versus control: 3 mm and 1 mm rostral/caudal to the lesion epicenter", "procedure": "Rats were randomly divided into the following three experimental groups: 1) untrained + placebo, 2) untrained + SM-345431 and 3) trained + SM-345431. SCT was performed, and SM-345431 or placebo was administered at the lesion site via the newly developed DDS, which is described in detail below. Starting 1 week post-injury, treadmill training commenced with a BSS. Kinematic tests were performed monthly for 3 months after SCT using a rodent robotic device (Rodent robot 3000, Robomedica Inc.) that primarily assessed the performance of plantar stepping on a treadmill. Treadmill training was continued throughout the experimental period.\nA total of 53 adult female Sprague-Dawley rats (200-250 g, 10-12 weeks old) were used in this study (3 rats died during the experimental period and were excluded from the statistical analysis). All procedures were approved by the experimental animal care committee of Keio University, School of Medicine and Murayama Medical Center (approval #12-8). All rats were anesthetized with an intraperitoneal injection of ketamine (100 mg/kg)/xylazine (10 mg/kg). The spinal cord at the level of the T10 lamina was exposed by T10 laminectomy, and the dorsal dura mater was opened. The exposed spinal cord was cut along the inner edge of the vertebra with a sharp micro-scissor. Two more cuts were made at the gap of the transected spinal cord by a scalpel to ensure total transection. SM-345431 or placebo was administered to the transected site via the newly developed DDS as described in detail below (Figure 1G-I). After these procedures, the back muscles and skin were closed. Rats were kept warm in an incubator (37°C) after surgery. To prevent dehydration in the rats, 10 ml of saline was subcutaneously injected daily until day 7. Ampicillin (0.4 g/kg) was also injected intramuscularly daily to prevent infection until day 7. The bladder was evacuated manually until autonomous emptying of the bladder was achieved. […] Kinematic data were recorded using similar procedures prior to re-transection surgery (on the same day) and on the day following re-transection surgery. […]"}},
  "data": [
    {"smiles": "CC(=O)c1cc2c(=O)c3c(C(=O)O)c(O)c(O)cc3oc2c(C(C)=O)c1-c1coc2cc(O)c(O)c(C(=O)O)c2c1=O", "note": "[SM-345431, Vinaxanthone]", "values": [
      {"measurement": "IC50", "setting": "Chemokine CCR5", "result": "> 10", "unit": "µM"},
      {"measurement": "IC50", "setting": "Chemokine CCR4", "result": "> 10", "unit": "µM"},
      {"measurement": "IC50", "setting": "Chemokine CCR1", "result": "> 10", "unit": "µM"},
      {"measurement": "IC50", "setting": "Glucocorticoid", "result": "> 10", "unit": "µM"},
      {"measurement": "IC50", "setting": "Chemokine CXCR2 (IL-8B)", "result": "> 10", "unit": "µM"},
      {"measurement": "IC50", "setting": "Chemokine CCR2B", "result": "> 10", "unit": "µM"},
      {"measurement": "IC50", "setting": "[1]", "result": "> 10", "unit": "µM"},
      {"measurement": "IC50", "setting": "SAPK2a", "result": "> 10", "unit": "µM"},
      {"measurement": "IC50", "setting": "GSK3β", "result": "> 10", "unit": "µM"},
      {"measurement": "IC50", "setting": "MEK4", "result": "> 10", "unit": "µM"},
      {"measurement": "IC50", "setting": "Flt1", "result": "> 10", "unit": "µM"},
      {"measurement": "IC50", "setting": "PAK4", "result": "> 10", "unit": "µM"},
      {"measurement": "IC50", "setting": "EphB2", "result": 0.68, "unit": "µM"},
      {"measurement": "IC50", "setting": "Fyn", "result": "> 10", "unit": "µM"},
      {"measurement": "IC50", "setting": "EGFR", "result": 0.9, "unit": "µM"},
      {"measurement": "IC50", "setting": "FGFR2", "result": "> 10", "unit": "µM"},
      {"measurement": "IC50", "setting": "PKBα", "result": "> 10", "unit": "µM"},
      {"measurement": "IC50", "setting": "PKBβ", "result": "> 10", "unit": "µM"},
      {"measurement": "IC50", "setting": "PI 3-Kγ", "result": "> 10", "unit": "µM"},
      {"measurement": "IC50", "setting": "PAK2", "result": "> 10", "unit": "µM"},
      {"measurement": "IC50", "setting": "MAPK2", "result": "> 10", "unit": "µM"},
      {"measurement": "total immunostained area of vessels with lumen diameters larger than 20 μm versus control", "setting": "SCT adult rats; SM-345431 alone", "result": "significantly increased"},
      {"measurement": "total immunostained area of vessels with lumen diameters larger than 20 μm versus control", "setting": "SCT adult rats; SM-345431 combined with treadmill training", "result": "significantly increased"},
      {"measurement": "RECA-1-positive areas", "setting": "SCT adult rats; SM-345431 combined with treadmill training, 3 mm caudal to the lesion epicenter, P < 0.05", "result": "significantly increased"}
    ]}
  ]
}
